Data reported in PubChem BioAssay AID1963839 (Molecular Pharmacology Branch, DTP, NCI, 2024).

System: 817829-284-R-J1-PDC complex spheroid viability
Assay: Anticancer human tumor 817829-284-R-J1-PDC patient-derived colon adenocarcinoma cell line growth inhibition [POLQ]
Conditions: for IC50: curve of first compound; for viability, T/C: stronger effect = lower value
How it was run: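 Patient-derived tumour cells were co-cultured with HUVEC and mesenchymal stem cells as multicellular spheroids at 37 °C. They were treated with POLQ inhibitors (novobiocin, ART-558, RP6685) alone or combined with other agents. Top concentrations were at or near clinical Cmax (otherwise 10 microM; SN-38 at 1 microM), decreasing in half-log steps.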

[1] = second compound 0.0316 µM, first compound 0.0316 µM
[2] = second compound 0.0316 µM, first compound 0.1 µM
[3] = second compound 0.0316 µM, first compound 0.316 µM
[4] = second compound 0.0316 µM, first compound 1 µM
[5] = second compound 0.0316 µM, first compound 3.16 µM
[6] = second compound 0.0316 µM, first compound 10 µM
[7] = second compound 0.1 µM, first compound 0.0316 µM
[8] = second compound 0.1 µM, first compound 0.1 µM
[9] = second compound 0.1 µM, first compound 0.316 µM
[10] = second compound 0.1 µM, first compound 1 µM
[11] = second compound 0.1 µM, first compound 3.16 µM
[12] = second compound 0.1 µM, first compound 10 µM
[13] = second compound 0.316 µM, first compound 0.0316 µM
[14] = second compound 0.316 µM, first compound 0.1 µM
[15] = second compound 0.316 µM, first compound 0.316 µM
[16] = second compound 0.316 µM, first compound 1 µM
[17] = second compound 0.316 µM, first compound 3.16 µM
[18] = second compound 0.316 µM, first compound 10 µM
[19] = second compound 1 µM, first compound 0.0316 µM
[20] = second compound 1 µM, first compound 0.1 µM
[21] = second compound 1 µM, first compound 0.316 µM
[22] = second compound 1 µM, first compound 1 µM
[23] = second compound 1 µM, first compound 3.16 µM
[24] = second compound 1 µM, first compound 10 µM
[25] = second compound 3.16 µM, first compound 0.0316 µM
[26] = second compound 3.16 µM, first compound 0.1 µM
[27] = second compound 3.16 µM, first compound 0.316 µM
[28] = second compound 3.16 µM, first compound 1 µM
[29] = second compound 3.16 µM, first compound 3.16 µM
[30] = second compound 3.16 µM, first compound 10 µM
[31] = second compound 10 µM, first compound 0.0316 µM
[32] = second compound 10 µM, first compound 0.1 µM
[33] = second compound 10 µM, first compound 0.316 µM
[34] = second compound 10 µM, first compound 1 µM
[35] = second compound 10 µM, first compound 3.16 µM
[36] = second compound 10 µM, first compound 10 µM
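Further: spheroids exposed to compounds for 7 days.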
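Wherever viability, T/C is given: 100% = DMSO vehicle-treated spheroids.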

SMILES: CC1COCCN1c1cc(C2(O)CC3CCC(C2)O3)c2cnn(-c3ccn[nH]3)c2n1 (stereo unspecified) + COC1C(OC(N)=O)C(O)C(Oc2ccc3c(O)c(NC(=O)c4ccc(O)c(CC=C(C)C)c4)c(=O)oc3c2C)OC1(C)C
- IC50 (second compound 0.0316 µM): < 31.6 nM
- IC50 (second compound 0.1 µM): < 31.6 nM
- IC50 (second compound 0.316 µM): < 31.6 nM
- IC50 (second compound 1 µM): < 31.6 nM
- IC50 (second compound 3.16 µM): < 31.6 nM
- IC50 (second compound 10 µM): < 31.6 nM
- viability, T/C [1]: 18.5%
- viability, T/C [2]: 10.7%
- viability, T/C [3]: 3.93%
- viability, T/C [4]: 3.7%
- viability, T/C [5]: 3.65%
- viability, T/C [6]: 2.96%
- viability, T/C [7]: 29.2%
- viability, T/C [8]: 8.78%
- viability, T/C [9]: 4.49%
- viability, T/C [10]: 2.72%
- viability, T/C [11]: 3.01%
- viability, T/C [12]: 1.82%
- viability, T/C [13]: 25.9%
- viability, T/C [14]: 8.28%
- viability, T/C [15]: 5.16%
- viability, T/C [16]: 3.2%
- viability, T/C [17]: 2.69%
- viability, T/C [18]: 2.57%
- viability, T/C [19]: 24.7%
- viability, T/C [20]: 9.42%
- viability, T/C [21]: 4.54%
- viability, T/C [22]: 3.29%
- viability, T/C [23]: 3.01%
- viability, T/C [24]: 1.8%
- viability, T/C [25]: 27.9%
- viability, T/C [26]: 10.5%
- viability, T/C [27]: 4.65%
- viability, T/C [28]: 3.82%
- viability, T/C [29]: 2.76%
- viability, T/C [30]: 2.53%
- viability, T/C [31]: 21.5%
- viability, T/C [32]: 9.85%
- viability, T/C [33]: 5.03%
- viability, T/C [34]: 4.12%
- viability, T/C [35]: 2.91%
- viability, T/C [36]: 2.64%

SMILES: COc1cccc2c1C(=O)c1c(O)c3c(c(O)c1C2=O)CC(O)(C(=O)CO)CC3OC1CC(N)C(O)C(C)O1 (stereo unspecified) + Cc1cccc(N(C)C(=O)C2C(O)CCN2c2nc(C)cc(C(F)(F)F)c2C#N)c1
- IC50 (second compound 0.0316 µM): < 31.6 nM
- IC50 (second compound 0.1 µM): < 31.6 nM
- IC50 (second compound 0.316 µM): < 31.6 nM
- IC50 (second compound 1 µM): < 31.6 nM
- IC50 (second compound 3.16 µM): < 31.6 nM
- IC50 (second compound 10 µM): < 31.6 nM
- viability, T/C [1]: 20.6%
- viability, T/C [2]: 18.4%
- viability, T/C [3]: 6.01%
- viability, T/C [4]: 0.9%
- viability, T/C [5]: 0.17%
- viability, T/C [6]: 0.48%
- viability, T/C [7]: 21.8%
- viability, T/C [8]: 15.9%
- viability, T/C [9]: 7.06%
- viability, T/C [10]: 0.26%
- viability, T/C [11]: 0.22%
- viability, T/C [12]: 0.58%
- viability, T/C [13]: 20.2%
- viability, T/C [14]: 17.8%
- viability, T/C [15]: 6.56%
- viability, T/C [16]: 0.38%
- viability, T/C [17]: 0.19%
- viability, T/C [18]: 0.58%
- viability, T/C [19]: 21.2%
- viability, T/C [20]: 14.6%
- viability, T/C [21]: 6.03%
- viability, T/C [22]: 0.54%
- viability, T/C [23]: 0.29%
- viability, T/C [24]: 0.51%
- viability, T/C [25]: 20.1%
- viability, T/C [26]: 17.9%
- viability, T/C [27]: 3.35%
- viability, T/C [28]: 0.34%
- viability, T/C [29]: 0.32%
- viability, T/C [30]: 0.6%
- viability, T/C [31]: 17.4%
- viability, T/C [32]: 12.3%
- viability, T/C [33]: 4.14%
- viability, T/C [34]: 0.48%
- viability, T/C [35]: 0.3%
- viability, T/C [36]: 0.5%

SMILES: O=c1[nH]cc(F)c(=O)[nH]1 + Cc1cccc(N(C)C(=O)C2C(O)CCN2c2nc(C)cc(C(F)(F)F)c2C#N)c1
- IC50 (second compound 0.0316 µM): 1980 nM
- IC50 (second compound 0.1 µM): 3120 nM
- IC50 (second compound 0.316 µM): > 10000 nM
- IC50 (second compound 1 µM): 3100 nM
- IC50 (second compound 3.16 µM): 3650 nM
- IC50 (second compound 10 µM): 2530 nM
- viability, T/C [1]: 98.2%
- viability, T/C [2]: 119%
- viability, T/C [3]: 68.2%
- viability, T/C [4]: 72.5%
- viability, T/C [5]: 34.8%
- viability, T/C [6]: 38.9%
- viability, T/C [7]: 91.4%
- viability, T/C [8]: 126%
- viability, T/C [9]: 110%
- viability, T/C [10]: 75.4%
- viability, T/C [11]: 55.9%
- viability, T/C [12]: 42.1%
- viability, T/C [13]: 92.1%
- viability, T/C [14]: 98%
- viability, T/C [15]: 106%
- viability, T/C [16]: 74.4%
- viability, T/C [17]: 55.4%
- viability, T/C [18]: 45.8%
- viability, T/C [19]: 72.5%
- viability, T/C [20]: 118%
- viability, T/C [21]: 98.8%
- viability, T/C [22]: 75.1%
- viability, T/C [23]: 52.7%
- viability, T/C [24]: 39.9%
- viability, T/C [25]: 89.9%
- viability, T/C [26]: 112%
- viability, T/C [27]: 102%
- viability, T/C [28]: 77%
- viability, T/C [29]: 54.7%
- viability, T/C [30]: 36.3%
- viability, T/C [31]: 101%
- viability, T/C [32]: 91.8%
- viability, T/C [33]: 94.1%
- viability, T/C [34]: 60.4%
- viability, T/C [35]: 52%
- viability, T/C [36]: 42.6%
